Laboratory results published in PubChem BioAssay (NCI).
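Five compound concentrations were applied to cells in 96-well plates for 48 hours; endpoints were derived by simple linear interpolation of the resulting dose-response curve. GI50: concentration for 50% inhibition of growth. TGI is the concentration that stops growth completely.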

Key:
Experiment in all cases: DTP human tumour cell line panel, 48 h
ACHN renal = test system: ACHN renal
MALME-3M melanoma = test system: MALME-3M melanoma
PC-3 prostate = test system: PC-3 prostate
SR leukemia = test system: SR leukemia
SK-OV-3 ovarian = test system: SK-OV-3 ovarian
NCI/ADR-RES ovarian = test system: NCI/ADR-RES ovarian
MOLT-4 leukemia = test system: MOLT-4 leukemia
MDA-N = test system: MDA-N
SK-MEL-5 melanoma = test system: SK-MEL-5 melanoma
IGROV1 ovarian = test system: IGROV1 ovarian
HCT-15 colon = test system: HCT-15 colon

## CS(C)(=O)=N/C=C\C(=O)C(Cl)(Cl)Cl
ACHN renal
  TGI: > 100 µM
MALME-3M melanoma
  TGI: > 100 µM
PC-3 prostate
  TGI: > 100 µM
SR leukemia
  TGI: > 100 µM
SK-OV-3 ovarian
  TGI: > 100 µM
NCI/ADR-RES ovarian
  TGI: > 100 µM
MOLT-4 leukemia
  TGI: > 100 µM
MDA-N
  TGI: > 100 µM
SK-MEL-5 melanoma
  TGI: > 100 µM
IGROV1 ovarian
  TGI: > 100 µM
HCT-15 colon
  TGI: > 100 µM

## C=C1CC(OC(C)=O)/C=C(/C)CCC(C(C)(C)O)CC1O (configuration not stated)
ACHN renal
  TGI: > 100 µM
MALME-3M melanoma
  TGI: > 100 µM
PC-3 prostate
  TGI: > 100 µM
SR leukemia
  TGI: > 100 µM
SK-OV-3 ovarian
  TGI: > 100 µM
NCI/ADR-RES ovarian
  TGI: > 100 µM
MOLT-4 leukemia
  TGI: > 100 µM
MDA-N
  TGI: > 100 µM
SK-MEL-5 melanoma
  TGI: > 100 µM
IGROV1 ovarian
  TGI: > 100 µM
HCT-15 colon
  TGI: > 100 µM

## CCN(CC)CCN1C(=O)c2cccc3c(-c4ccc5c(c4)ncn5C4CCCCC4)ccc(c23)C1=O
ACHN renal
  GI50: 1.16 µM
  TGI: 2.96 µM
MALME-3M melanoma
  GI50: 1.38 µM
  TGI: 2.81 µM
PC-3 prostate
  GI50: 1.64 µM
  TGI: 4.66 µM
SR leukemia
  GI50: 0.414 µM
  TGI: 2.06 µM
SK-OV-3 ovarian
  GI50: 1.97 µM
  TGI: 4.18 µM
NCI/ADR-RES ovarian
  GI50: 1.45 µM
  TGI: 4.26 µM
MOLT-4 leukemia
  GI50: 1.1 µM
  TGI: 3.88 µM
SK-MEL-5 melanoma
  GI50: 1.32 µM
  TGI: 2.61 µM

## C1CNCCN2CCCNCCN(C1)CC2
ACHN renal
  TGI: > 100 µM
MALME-3M melanoma
  TGI: > 100 µM
PC-3 prostate
  TGI: > 100 µM
SR leukemia
  TGI: > 100 µM
SK-OV-3 ovarian
  TGI: > 100 µM
NCI/ADR-RES ovarian
  TGI: > 100 µM
MOLT-4 leukemia
  TGI: > 100 µM
MDA-N
  TGI: > 100 µM
SK-MEL-5 melanoma
  TGI: > 100 µM
IGROV1 ovarian
  TGI: > 100 µM
HCT-15 colon
  TGI: > 100 µM

## CC(C)OP(=O)(OC(C)C)C(C(F)(F)F)C(F)(F)F
ACHN renal
  TGI: > 100 µM
MALME-3M melanoma
  TGI: > 100 µM
PC-3 prostate
  TGI: > 100 µM
SR leukemia
  TGI: > 100 µM
SK-OV-3 ovarian
  TGI: > 100 µM
NCI/ADR-RES ovarian
  TGI: > 100 µM
MOLT-4 leukemia
  TGI: > 100 µM
MDA-N
  TGI: > 100 µM
SK-MEL-5 melanoma
  TGI: > 100 µM
IGROV1 ovarian
  TGI: > 100 µM
HCT-15 colon
  TGI: > 100 µM

## Cc1csc2c(P(=O)(OC(C)C)OC(C)C)c(-c3ccccc3)cn12
ACHN renal
  TGI: 28.3 µM
MALME-3M melanoma
  TGI: 36.1 µM
PC-3 prostate
  TGI: 28.7 µM
SR leukemia
  TGI: 36.7 µM
SK-OV-3 ovarian
  TGI: 33 µM
NCI/ADR-RES ovarian
  TGI: 36.2 µM
MOLT-4 leukemia
  TGI: 31.4 µM
MDA-N
  TGI: 32.5 µM
SK-MEL-5 melanoma
  TGI: 29.7 µM
IGROV1 ovarian
  TGI: 31.9 µM
HCT-15 colon
  TGI: 31.6 µM

## O=C1CCc2c3c(c4c([nH]c5ccccc54)c2CC1)C(=O)NC3=O
ACHN renal
  TGI: 24.7 µM
MALME-3M melanoma
  TGI: 12.6 µM
PC-3 prostate
  TGI: 70.6 µM
NCI/ADR-RES ovarian
  TGI: > 100 µM
MOLT-4 leukemia
  TGI: 4.05 µM
SK-MEL-5 melanoma
  TGI: 5.77 µM
IGROV1 ovarian
  TGI: 13.7 µM
HCT-15 colon
  TGI: > 100 µM

## CN(c1c(Cl)cccc1Cl)S(=O)(=O)c1ccccc1[N+](=O)[O-]
ACHN renal
  TGI: > 100 µM
MALME-3M melanoma
  TGI: > 100 µM
PC-3 prostate
  TGI: > 100 µM
SR leukemia
  TGI: > 100 µM
SK-OV-3 ovarian
  TGI: > 100 µM
NCI/ADR-RES ovarian
  TGI: > 100 µM
MOLT-4 leukemia
  TGI: > 100 µM
MDA-N
  TGI: > 100 µM
IGROV1 ovarian
  TGI: > 100 µM
HCT-15 colon
  TGI: > 100 µM

## CCN(CC)CCn1ncc2ccc3c(c(=O)c4cccnc4n3CCN(CC)CC)c21
ACHN renal
  TGI: > 10 µM
MALME-3M melanoma
  TGI: 3.32 µM
PC-3 prostate
  TGI: 3.85 µM
SR leukemia
  TGI: 1.3 µM
SK-OV-3 ovarian
  TGI: > 9.46 µM
NCI/ADR-RES ovarian
  TGI: 4.86 µM
MOLT-4 leukemia
  TGI: 1.43 µM
MDA-N
  TGI: 2.15 µM
SK-MEL-5 melanoma
  TGI: 2.38 µM
IGROV1 ovarian
  TGI: 4.22 µM
HCT-15 colon
  TGI: 6 µM

## Nc1[nH]c(=O)nc2sc3c(c12)CCCC3
ACHN renal
  TGI: > 100 µM
MALME-3M melanoma
  TGI: > 100 µM
PC-3 prostate
  TGI: > 100 µM
SR leukemia
  TGI: > 100 µM
SK-OV-3 ovarian
  TGI: > 100 µM
NCI/ADR-RES ovarian
  TGI: > 100 µM
MOLT-4 leukemia
  TGI: > 100 µM
SK-MEL-5 melanoma
  TGI: > 100 µM
IGROV1 ovarian
  TGI: > 100 µM
HCT-15 colon
  TGI: > 100 µM

## C#CCNC(=O)CCC(N)C(=O)O (configuration not stated)
MALME-3M melanoma
  TGI: > 100 µM
SK-OV-3 ovarian
  TGI: > 100 µM
NCI/ADR-RES ovarian
  TGI: > 100 µM
MOLT-4 leukemia
  TGI: > 100 µM
SK-MEL-5 melanoma
  TGI: > 100 µM
IGROV1 ovarian
  TGI: > 100 µM
HCT-15 colon
  TGI: > 100 µM

## CN(C)c1nc(N(C)C)nc(N(C)CN(C)c2ccccc2)n1
ACHN renal
  TGI: > 100 µM
MALME-3M melanoma
  TGI: > 100 µM
SK-OV-3 ovarian
  TGI: > 100 µM
MOLT-4 leukemia
  TGI: > 100 µM
SK-MEL-5 melanoma
  TGI: > 100 µM
IGROV1 ovarian
  TGI: > 100 µM
HCT-15 colon
  TGI: > 100 µM

## CCCCc1ccc(Nc2nc3c(ncn3C3OC(COC(C)=O)C(OC(C)=O)C3OC(C)=O)c(=O)[nH]2)cc1 (configuration not stated)
ACHN renal
  TGI: > 100 µM
MALME-3M melanoma
  TGI: 36.8 µM
PC-3 prostate
  TGI: 48.1 µM
SR leukemia
  TGI: 35.9 µM
SK-OV-3 ovarian
  TGI: 71.1 µM
NCI/ADR-RES ovarian
  TGI: > 100 µM
MOLT-4 leukemia
  TGI: 37.8 µM
MDA-N
  TGI: 35.4 µM
SK-MEL-5 melanoma
  TGI: 31.1 µM
IGROV1 ovarian
  TGI: 37.7 µM
HCT-15 colon
  TGI: > 100 µM

## Cc1ccnc(NS(=O)(=O)c2ccc(NC(=O)c3ccc4nc5ccccc5c(Nc5ccc(S(=O)(=O)Nc6nccc(C)n6)cc5)c4c3)cc2)n1
ACHN renal
  TGI: > 100 µM
MALME-3M melanoma
  TGI: > 100 µM
PC-3 prostate
  TGI: > 100 µM
SR leukemia
  TGI: 55.6 µM
SK-OV-3 ovarian
  TGI: > 100 µM
NCI/ADR-RES ovarian
  TGI: > 100 µM
MOLT-4 leukemia
  TGI: > 100 µM
MDA-N
  TGI: > 100 µM
SK-MEL-5 melanoma
  TGI: > 100 µM
IGROV1 ovarian
  TGI: > 100 µM
HCT-15 colon
  TGI: > 100 µM

## CC(=O)OCC1C(C(C)OC(C)=O)CCC2C1CCC1(C)C(OC(C)=O)CCC21 (configuration not stated)
ACHN renal
  TGI: 28.3 µM
MALME-3M melanoma
  TGI: 37 µM
SR leukemia
  TGI: > 100 µM
NCI/ADR-RES ovarian
  TGI: 44.9 µM
MOLT-4 leukemia
  TGI: 41.8 µM
MDA-N
  TGI: 37 µM
SK-MEL-5 melanoma
  TGI: 30.6 µM
IGROV1 ovarian
  TGI: 42.1 µM
HCT-15 colon
  TGI: 36.5 µM

## CN(C)C(=S)Nc1nnc(NC23CC4CC(CC(C4)C2)C3)s1
ACHN renal
  TGI: 64 µM
MALME-3M melanoma
  TGI: 53.3 µM
SR leukemia
  TGI: 57.9 µM
SK-OV-3 ovarian
  TGI: 80.1 µM
MOLT-4 leukemia
  TGI: > 100 µM
IGROV1 ovarian
  TGI: 72.8 µM
HCT-15 colon
  TGI: 28.8 µM

## O=C1C=C2S[C@H]3C[C@]2(C=C1Br)c1c(c(O)c2c4c1=NCCC=4C=N2)N3
ACHN renal
  TGI: 1.76 µM
MALME-3M melanoma
  TGI: 0.261 µM
PC-3 prostate
  TGI: 4.52 µM
SR leukemia
  TGI: > 100 µM
SK-OV-3 ovarian
  TGI: 17.1 µM
NCI/ADR-RES ovarian
  TGI: 0.457 µM
MOLT-4 leukemia
  TGI: 0.418 µM
MDA-N
  TGI: 0.314 µM
SK-MEL-5 melanoma
  TGI: 2.38 µM
IGROV1 ovarian
  TGI: 2.92 µM
HCT-15 colon
  TGI: 1.99 µM

## O=C(N=Nc1ccc([N+](=O)[O-])cc1)NNc1ccc([N+](=O)[O-])cc1
ACHN renal
  TGI: 38.8 µM
MALME-3M melanoma
  TGI: 53.1 µM
PC-3 prostate
  TGI: 52 µM
SR leukemia
  TGI: 72.6 µM
MOLT-4 leukemia
  TGI: 40.8 µM
MDA-N
  TGI: 32.3 µM
SK-MEL-5 melanoma
  TGI: 31.2 µM
IGROV1 ovarian
  TGI: 26.8 µM
HCT-15 colon
  TGI: 62.8 µM

## C=CCCCCOC1C=CC(OC(C)=O)C(COC(C)=O)O1 (configuration not stated)
ACHN renal
  TGI: > 100 µM
MALME-3M melanoma
  TGI: > 100 µM
PC-3 prostate
  TGI: > 100 µM
SK-OV-3 ovarian
  TGI: > 100 µM
NCI/ADR-RES ovarian
  TGI: > 100 µM
MOLT-4 leukemia
  TGI: > 100 µM
MDA-N
  TGI: > 100 µM
SK-MEL-5 melanoma
  TGI: > 100 µM
IGROV1 ovarian
  TGI: > 100 µM
HCT-15 colon
  TGI: > 100 µM

## NNC(N)=Nc1cccc2ccccc12
ACHN renal
  TGI: > 100 µM
MALME-3M melanoma
  TGI: > 100 µM
SR leukemia
  TGI: > 100 µM
SK-OV-3 ovarian
  TGI: > 100 µM
NCI/ADR-RES ovarian
  TGI: > 100 µM
MOLT-4 leukemia
  TGI: > 100 µM
SK-MEL-5 melanoma
  TGI: > 100 µM
IGROV1 ovarian
  TGI: > 100 µM
HCT-15 colon
  TGI: > 100 µM

## O=[N+]([O-])c1cc2n[nH]nc2c2nonc12
ACHN renal
  TGI: 67.6 µM
MALME-3M melanoma
  TGI: > 100 µM
PC-3 prostate
  TGI: > 100 µM
SR leukemia
  TGI: > 100 µM
SK-OV-3 ovarian
  TGI: > 100 µM
NCI/ADR-RES ovarian
  TGI: > 100 µM
MOLT-4 leukemia
  TGI: 95.6 µM
MDA-N
  TGI: 80.5 µM
SK-MEL-5 melanoma
  TGI: 24.7 µM
IGROV1 ovarian
  TGI: > 100 µM
HCT-15 colon
  TGI: > 100 µM
